In patent US9901111B2, “Taste-improving peptide” (Takasago International Corporation, priority 2011, dated 2018):

Assay: Sensory evaluation of sourness-masking effect in yoghurt drink by five special panelists
Conditions: for Evaluation Result (sourness-masking effect): score 0-3, stored at 10° C. for 10 days
Experimental: The peptide mixture obtained in the above procedure 1 was centrifuged (20,000 G) to obtain an aqueous layer. The aqueous layer was treated with UF membranes of 20 nm, 5 kDa and 1 kDa, respectively, and permeate solutions were collected. Each permeate solution obtained through the UF membranes or the peptide mixture before treatment were added to a commercially available yoghurt drink. After the yoghurt drink was stored at 10° C. for 10 days, five special panelists conducted sensory evaluation regarding a sourness-masking effect. Note that each sample was prepared such that the addition amount is 0.1% calculated in terms of the peptide mixture. A commercially available yoghurt drink without addition was used as control. Evaluation was performed by scoring from 0 to 3 shown in Table 1 at 0.5 point intervals.
(§1) In the same manner as in the above procedure 2, the obtained 13 fractions were added to a commercially available yoghurt drink, respectively. After the yoghurt drink was stored at 10° C. for 10 days, five special panelists conducted sensory evaluation regarding a sourness-masking effect. Each sample was prepared such that the addition amount is 0.1% calculated in terms of the peptide mixture. The evaluation method is the same as in the above procedure 2.
as §1, with “four” for “13”
The five kinds of peptide identified in Example 1 and phenylalanine were added to a commercially available yoghurt drink, respectively. After the yoghurt drink was stored at 10° C. for 10 days, five special panelists conducted sensory evaluation regarding a sourness-masking effect. The peptide mixture obtained in Example 1-1 was added in an amount of 0.1%, the peptides and phenylalanine obtained in Example 1-5 were added in an amount of 20 ppb and the mixture of VP+LLL was added in an amount of 10 ppb each. The evaluation method was the same as in Example 1-2.
VP and LLL were mixed in the mixture ratio within the range from 1:9 to 9:1 and each mixture was added to a commercially available yoghurt drink in an amount of 0.01 ppm. After the yoghurt drink was stored at 10° C. for 10 days, five special panelists conducted sensory evaluation regarding a sourness-masking effect. The evaluation method is the same as in the Example 1-2.
VP, LLL and the mixture of equal parts of VP and LLL were added to a commercially available yoghurt drink in an amount of 0.001 ppm, 0.01 ppm and 0.1 ppm, respectively. After the yoghurt drink was stored at 10° C. for 10 days, five special panelists conducted sensory evaluation regarding a sourness-masking effect. The evaluation method is the same as in the Example 1-2.

[1] = Example 4, addition concentration 0.001 ppm
[2] = Example 4, addition concentration 0.01 ppm
[3] = Example 4, addition concentration 0.1 ppm

| Compound | Evaluation Result (sourness-masking effect) (Example 2, added at 20 ppb) | sourness-masking effect, in words (Example 2, added at 20 ppb) | Evaluation Result (sourness-masking effect) (Example 3, added at 0.01 ppm) | Evaluation Result (sourness-masking effect) [1] | Evaluation Result (sourness-masking effect) [2] | Evaluation Result (sourness-masking effect) [3] |
| --- | --- | --- | --- | --- | --- | --- |
| N[C@@H](Cc1ccccc1)C(=O)O [F, phenylalanine, reference compound] | 0.1 | – | – | – | – | – |
| Leu-Leu-Leu [LLL] | 1.4 | remarkable sourness-masking effect | 1.3 | 0.3 | 1.4 | 1.5 |
| Leu-Leu-Leu-Leu (LLLL; printed: Leu-Leu-Leu-Leu) [reference compound] | 0.3 | – | – | – | – | – |
| Leu-Pro-Pro [LPP, reference compound] | 0.3 | – | – | – | – | – |
| Val-Pro [VP] | 1.3 | remarkable sourness-masking effect | 1.4 | 0.2 | 1.5 | 1.5 |
| Val-Pro-Pro [VPP, reference compound] | 0.2 | – | – | – | – | – |
